The source of these data is PubChem BioAssay AID1205 (EPA DSSTox, 2008).

The source made the active and inactive calls.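 How the source made its calls: active means tumour findings in long-term animal cancer tests in more than one sex, species or organ; inactive means no tumour finding and more than one negative test.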

This data set in a line: DSSTox (CPDBAS) Carcinogenic Potency Database Summary MultiCellCall Results. The note with it: animal carcinogenicity bioassays, multi-cell call summary. In a few lines: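 ActivityScore sums 50 for multispecies, 30 for multisex and 20 for multisite positivity. Based on the most positive experiment per sex-species across standardised chronic rodent and other animal cancer tests.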
For the molecule `Cc1ccccc1OCC(O)CNCCn1cc(C)c(=O)[nH]c1=O` (configuration not stated), the outcome was “inactive; multisex inactive”.
On to `C=COC(N)=O`, for which the outcome is “active; multisite active; multisex active”.
Turning to `FC(F)=C(F)F`, the outcome was “active; multisite active; multisex active; multispecies active”.
`c1ccc(-c2ccccc2)cc1`: the outcome was “inactive; multisex inactive”.
The same measure for `CN(C)Nc1nc(-c2ccc([N+](=O)[O-])o2)cs1`: “active; multisite active”; for `Nc1ccccc1`: “active; multisite active; multisex active”.
The same measure for `CCCCN(N=O)C(N)=O`: “active; multisite active; multisex active”; for `OC[P+](CO)(CO)CO`: “inactive; multisex inactive; multispecies inactive”.
Turning to `CCCCCl`, the outcome was “inactive; multisex inactive; multispecies inactive”.
The same measure for `Nc1ccc2ccccc2c1S(=O)(=O)O`: “inactive; multisex inactive”; for `ClC(Cl)(Cl)c1ccccc1`: “active; multisite active”; for `C=C(C)C(=O)OC`: “inactive; multisex inactive; multispecies inactive”.
As to `COc1c(Cl)c(Cl)c(Cl)c(Cl)c1Cl`, the outcome was “active; multisite active; multispecies active”.
The same measure for `O1[As]2O[As]3O[As]1O[As](O2)O3`: “inactive; multisex inactive”; for `COP(=O)(OC)OC=C(Cl)Cl`: “active; multisite active; multisex active; multispecies active”; for `CC1CCC(C(C)C)C(O)C1` (configuration not stated): “inactive; multisex inactive; multispecies inactive”.
The same measure for `CCCCN(CCCC)C(=S)[S-].CCCCN(CCCC)C(=S)[S-].[Zn+2]`: “inactive; multisex inactive”; for `NCCCCCCCCCCC(=O)O`: “active; multisite active”.
The same measure for `FC(F)(Cl)C(F)(Cl)Cl`: “inactive; multisex inactive”; for `O=C(O)C(Cl)(Cl)Cl`: “active; multisex active”; for `C[C@]12CCC(=O)C=C1CC[C@@H]1[C@@H]2[C@@H](O)C[C@@]2(C)[C@H]1CC[C@]2(O)C(=O)CO`: “inactive; multisex inactive”.
For the molecule `O=Cc1ccco1`, the outcome was “active; multisex active; multispecies active”.
The same measure for `CCOc1ccc(NC(C)=O)cc1`: “active; multisite active; multisex active; multispecies active”; for `Cc1c(N(C)C)c(=O)n(-c2ccccc2)n1C`: “inactive; multisex inactive”.
The same measure for `CC[C@H](C)C(=O)O[C@H]1C[C@@H](C)C=C2C=C[C@H](C)[C@H](CC[C@@H]3C[C@@H](O)CC(=O)O3)[C@H]21`: “active; multisite active; multisex active”.
The same measure for `CCCOC(=O)C1c2cc3c(cc2CC(C)C1C(=O)OCCC)OCO3` (configuration not stated): “inactive; multisex inactive”; for `NNc1nc(-c2ccc(N)cc2)cs1`: “active; multisite active; multispecies active”; for `C=CCN(CC(O)CO)N=O` (configuration not stated): “active; multisite active”.
With `CC(C)Nc1nc(Cl)nc(NC(C)C)n1`, the outcome is “inactive; multisex inactive”.
For the molecule `O=C(O)c1ccc(N=Nc2ccc(O)c(C(=O)O)c2)cc1`, the outcome is “inactive; multisex inactive; multispecies inactive”.
Turning to `CN(C)N`, the outcome was “active; multisite active; multisex active; multispecies active”.
The same measure for `CCOP(=S)(OCC)Oc1nc(Cl)c(Cl)cc1Cl`: “inactive; multisex inactive”.
The same measure for `Nc1ncn([C@@H]2O[C@H](CO)[C@@H](O)[C@H]2O)c(=O)n1`: “active; multisite active; multisex active; multispecies active”; for `C=CC(O)c1ccc2c(c1)OCO2` (configuration not stated): “active; multisite active; multisex active; multispecies active”; for `C=CF`: “active; multisite active; multisex active; multispecies active”.
Regarding `c1ccncc1`, the outcome is “active; multisite active; multisex active; multispecies active”.
The same measure for `NNCCc1ccccc1`: “active; multisite active”; for `Nc1ccccc1C(=O)O`: “inactive; multisex inactive; multispecies inactive”; for `FC(F)OC(Cl)C(F)(F)F` (configuration not stated): “inactive; multisex inactive”.
The same measure for `CN1CCC[C@H]1c1cccnc1`: “inactive; multisex inactive”.
In the case of `O=NN(CCO)C(=O)NCCCl`, the outcome is “active; multisite active; multisex active”.
The same measure for `NC(=O)N(CCCO)N=O`: “active; multisex active”.
Turning to `CCC1CO1` (configuration not stated), the outcome was “active; multisite active”.
As to `COc1cc(/C=C/C(=O)O[C@H]2CC[C@]34C[C@]35CC[C@]3(C)[C@@H]([C@H](C)CCC=C(C)C)CC[C@@]3(C)[C@@H]5CC[C@H]4C2(C)C)ccc1O`, the outcome is “inactive; multisex inactive; multispecies inactive”.
Regarding `CC(Cl)CCl` (configuration not stated), the outcome is “active; multisex active”.
Regarding `C=O`, the outcome is “active; multisite active; multisex active; multispecies active”.
The same measure for `Nc1ccc2c(n1)[nH]c1ccccc12`: “active; multisite active; multisex active”; for `ClC1=C(Cl)[C@@]2(Cl)[C@@H]3[C@@H](Cl)[C@H](Cl)C[C@@H]3C1(Cl)C2(Cl)Cl`: “active; multisex active”.
On to `FC(F)OC(F)(F)C(F)Cl` (configuration not stated), for which the outcome was “inactive; multisex inactive”.
The same measure for `CCCCCN(CCCCC)N=O`: “active; multisex active”.
The same measure for `C1COCCO1`: “active; multisite active; multisex active; multispecies active”.
Take `C=C1C[C@]23C[C@@]1(O)CC[C@H]2[C@@]12C=C[C@H](O)[C@@](C)(C(=O)O1)[C@H]2[C@@H]3C(=O)O`: the outcome was “inactive; multisex inactive”.
For `CCNC(=O)N(CCO)N=O`, the outcome was “active; multisite active; multisex active”.
For `ClCC1CO1` (configuration not stated), the outcome was “active; multisex active”.
The same measure for `COc1cc(NC(=O)C(N=Nc2ccc(-c3ccc(N=NC(C(C)=O)C(=O)Nc4cc(OC)c(Cl)cc4OC)c(Cl)c3)cc2Cl)C(C)=O)c(OC)cc1Cl` (configuration not stated): “inactive; multispecies inactive”; for `N=c1ccn2c(n1)O[C@H]1[C@H](O)[C@@H](CO)O[C@H]12`: “inactive; multisex inactive”.
The same measure for `C=C(Cl)Cl`: “active; multisite active; multisex active”; for `Nc1ccc(Oc2ccc(Cl)cc2)cc1`: “active; multisite active; multisex active; multispecies active”; for `ClC1=C(Cl)C2(Cl)C3C(Cl)OC(Cl)C3C1(Cl)C2(Cl)Cl` (configuration not stated): “inactive; multisex inactive”.
The same measure for `CCCCC/C=N/N(C)C=O`: “active; multisite active; multisex active”; for `CCN=[N+]([O-])CC`: “active; multisite active”.
On to `CCN(N)C=O`, for which the outcome was “active; multisite active; multisex active”.
Regarding `COP(=S)(OC)SCn1nnc2ccccc2c1=O`, the outcome is “inactive; multisex inactive; multispecies inactive”.
Turning to `CC(Cl)Cl`, the outcome is “inactive; multisex inactive; multispecies inactive”.
The same measure for `O=NN(CCCl)C(=O)N[C@@H]1[C@@H](O)[C@H](O)[C@@H](CO)O[C@@H]1O`: “active; multisex active”; for `COc1ccc(O)cc1`: “active; multisex active”.
The same measure for `Cc1ccccc1[N+](=O)[O-]`: “active; multisite active; multisex active; multispecies active”.
In the case of `O=C1C2CC=CCC2C(=O)N1SC(Cl)(Cl)Cl` (configuration not stated), the outcome is “active; multisite active; multisex active; multispecies active”.
Regarding `[O-]/[N+](=N\O)c1ccccc1`, the outcome was “active; multisite active; multisex active; multispecies active”.
The same measure for `Nc1ccc(Nc2ccccc2)cc1`: “inactive; multisex inactive; multispecies inactive”; for `CNCc1ccc(CSCCNC(=NCC(O)c2ccc(O)cc2)NS(C)(=O)=O)o1` (configuration not stated): “active; multisex active”.
The same measure for `CC(=O)CN(C)N=O`: “active; multisite active; multisex active”; for `C[C@H](CCC(=O)O)[C@H]1CC[C@H]2[C@@H]3CC[C@@H]4C[C@H](O)CC[C@]4(C)[C@H]3CC[C@]12C`: “inactive; multisex inactive; multispecies inactive”; for `OCCO`: “inactive; multisex inactive”.
The same measure for `O=C(O)C(Cl)Cl`: “active; multisex active; multispecies active”.
Consider `O=C(O)COc1ccc(Cl)cc1Cl`, for which the outcome is “inactive; multisex inactive; multispecies inactive”.
The same measure for `C[C@]12CC[C@@H]3c4ccc(OC(=O)Cc5ccc(N(CCCl)CCCl)cc5)cc4CC[C@H]3[C@@H]1CC[C@@H]2OC(=O)Cc1ccc(N(CCCl)CCCl)cc1`: “active; multisite active; multisex active”.
On to `CC(=O)CN(N=O)C(=O)NCCCl`, for which the outcome is “active; multisex active”.
Regarding `Cc1cc(-c2ccc(N)c(C)c2)ccc1N`, the outcome is “active; multisite active; multisex active; multispecies active”.
Consider `COc1cccc2c1cc([N+](=O)[O-])c1c(C(=O)O)cc3c(c12)OCO3`, for which the outcome is “active; multisex active”.
The same measure for `O=S(=O)([O-])[O-].[O]=[V+2]`: “inactive; multisex inactive; multispecies inactive”.
For `OC[C@H]1O[C@@H]2O[C@H]3[C@H](O)[C@@H](O)[C@@H](O[C@H]4[C@H](O)[C@@H](O)[C@@H](O[C@H]5[C@H](O)[C@@H](O)[C@@H](O[C@H]6[C@H](O)[C@@H](O)[C@@H](O[C@H]7[C@H](O)[C@@H](O)[C@@H](O[C@H]8[C@H](O)[C@@H](O)[C@@H](O[C@H]1[C@H](O)[C@H]2O)O[C@@H]8CO)O[C@@H]7CO)O[C@@H]6CO)O[C@@H]5CO)O[C@@H]4CO)O[C@@H]3CO`, the outcome was “inactive; multisex inactive; multispecies inactive”.
The same measure for `CCCCCCCCCc1ccc(OCCOCCO)cc1`: “inactive; multispecies inactive”; for `CN(C)CCN(Cc1ccco1)c1ccccn1`: “inactive; multisex inactive”.
The same measure for `C/C=N/N(C)C=O`: “active; multisite active; multisex active”; for `COC(=O)C(c1ccccc1)C1CCCCN1` (configuration not stated): “active; multisex active”; for `CCN(C#N)N=O`: “active; multisex active”.
